Reference: the supplement of paper PMC10627819

Columns and labels:
B. subtilis 168 [1] = assay: fitness (endpoint OD595 vs no drug) (fraction); higher = more growth
Procedure, shortened: (§1)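 Plates with 384 wells were inoculated at OD595 0.01 using 30 µl of TSB, LB Lennox or CY, or 55 µl for S. pneumoniae. Incubation was at 37 °C, with OD595 measured every 30 min for 14 h. Fitness is the stationary-phase transition optical density over the robust mean of no-drug control wells, after first-reading background subtraction; it is capped at 1.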

S. aureus Newman [2] = assay: as above
Procedure, shortened: as §1

S. pneumoniae D39V [3] = assay: as above
Procedure, shortened: as §1

B. subtilis 168 [4] = assay: Bliss interaction score (quartile over a dose matrix) (fitness difference); higher = more antagonism (negative = synergy)
Procedure, shortened: (§2)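 At entry into stationary phase, OD595 was recorded and divided by the robust mean of the no-drug wells on that plate, with any value above 1 set to 1. This gives the fitness measure used throughout. Single-drug fitness was inferred from combination data, and the Bliss score, observed minus product-expected fitness, is shown as quartiles across technical, biological and donor/recipient replicates.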

S. aureus DSM 20231 = assay: as above
Procedure, shortened: as §2

S. aureus Newman [5] = assay: as above
Procedure, shortened: as §2

S. pneumoniae D39V [6] = assay: as above
Procedure, shortened: as §2
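Throughout, for Bliss interaction score (quartile over a dose matrix): first quartile when negative (synergy) and third quartile when positive (antagonism).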

O=C(O)c1cn(C2CC2)c2cc(N3CCNCC3)c(F)cc2c1=O [Ciprofloxacin] + COc1ccc(C[C@H](N)C(=O)N[C@H]2[C@@H](O)[C@H](n3cnc4c(N(C)C)ncnc43)O[C@@H]2CO)cc1 [Puromycin]
Settings	fitness
B. subtilis 168 [1], first compound 0.0098 µg/mL, partner 0.39 µg/mL	0.918
B. subtilis 168 [1], first compound 0.0098 µg/mL, partner 0.78 µg/mL	0.956
B. subtilis 168 [1], first compound 0.0098 µg/mL, partner 1.56 µg/mL	0.842
B. subtilis 168 [1], first compound 0.0195 µg/mL, partner 0.39 µg/mL	0.721
B. subtilis 168 [1], first compound 0.0195 µg/mL, partner 0.78 µg/mL	0.721
B. subtilis 168 [1], first compound 0.0195 µg/mL, partner 1.56 µg/mL	0.683
B. subtilis 168 [1], first compound 0.039 µg/mL, partner 0.39 µg/mL	0.0586
B. subtilis 168 [1], first compound 0.039 µg/mL, partner 0.78 µg/mL	0.0556
B. subtilis 168 [1], first compound 0.039 µg/mL, partner 1.56 µg/mL	0.0555
S. aureus Newman [2], first compound 0.0375 µg/mL, partner 0.39 µg/mL	0.679
S. aureus Newman [2], first compound 0.0375 µg/mL, partner 0.78 µg/mL	0.635
S. aureus Newman [2], first compound 0.0375 µg/mL, partner 1.56 µg/mL	0.651
S. aureus Newman [2], first compound 0.075 µg/mL, partner 0.39 µg/mL	0.577
S. aureus Newman [2], first compound 0.075 µg/mL, partner 0.78 µg/mL	0.522
S. aureus Newman [2], first compound 0.075 µg/mL, partner 1.56 µg/mL	0.422
S. aureus Newman [2], first compound 0.15 µg/mL, partner 0.39 µg/mL	0.0435
S. aureus Newman [2], first compound 0.15 µg/mL, partner 0.78 µg/mL	0.0274
S. aureus Newman [2], first compound 0.15 µg/mL, partner 1.56 µg/mL	0.0296
S. pneumoniae D39V [3], first compound 0.125 µg/mL, partner 1 µg/mL	0.944
S. pneumoniae D39V [3], first compound 0.125 µg/mL, partner 2 µg/mL	0.92
S. pneumoniae D39V [3], first compound 0.125 µg/mL, partner 4 µg/mL	0.492
S. pneumoniae D39V [3], first compound 0.25 µg/mL, partner 1 µg/mL	0.808
S. pneumoniae D39V [3], first compound 0.25 µg/mL, partner 2 µg/mL	0.846
S. pneumoniae D39V [3], first compound 0.25 µg/mL, partner 4 µg/mL	0.51
S. pneumoniae D39V [3], first compound 0.5 µg/mL, partner 4 µg/mL	0.347

Settings	Bliss interaction score
B. subtilis 168 [4]	-0.118
S. aureus DSM 20231	-0.135
S. aureus Newman [5]	-0.132
S. pneumoniae D39V [6]	-0.0901

O=C(O)c1cn(C2CC2)c2cc(N3CCNCC3)c(F)cc2c1=O [Ciprofloxacin] + COc1cccc2c1C(=O)c1c(O)c3c(c(O)c1C2=O)C[C@@](O)(C(=O)CO)C[C@@H]3O[C@H]1C[C@H](N)[C@H](O)[C@H](C)O1 [Doxorubicin]
Settings	fitness
B. subtilis 168 [1], first compound 0.0098 µg/mL, partner 0.625 µg/mL	0.908
B. subtilis 168 [1], first compound 0.0098 µg/mL, partner 1.25 µg/mL	0.872
B. subtilis 168 [1], first compound 0.0195 µg/mL, partner 0.625 µg/mL	0.702
B. subtilis 168 [1], first compound 0.0195 µg/mL, partner 1.25 µg/mL	0.628
B. subtilis 168 [1], first compound 0.039 µg/mL, partner 0.625 µg/mL	0.186
B. subtilis 168 [1], first compound 0.039 µg/mL, partner 1.25 µg/mL	0.131
B. subtilis 168 [1], first compound 0.039 µg/mL, partner 2.5 µg/mL	0.037
S. aureus Newman [2], first compound 0.0375 µg/mL, partner 0.625 µg/mL	0.634
S. aureus Newman [2], first compound 0.0375 µg/mL, partner 1.25 µg/mL	0.667
S. aureus Newman [2], first compound 0.0375 µg/mL, partner 2.5 µg/mL	0.658
S. aureus Newman [2], first compound 0.075 µg/mL, partner 0.625 µg/mL	0.689
S. aureus Newman [2], first compound 0.075 µg/mL, partner 1.25 µg/mL	0.698
S. aureus Newman [2], first compound 0.075 µg/mL, partner 2.5 µg/mL	0.642
S. aureus Newman [2], first compound 0.15 µg/mL, partner 1.25 µg/mL	0.203
S. aureus Newman [2], first compound 0.15 µg/mL, partner 2.5 µg/mL	0.15
S. pneumoniae D39V [3], first compound 0.125 µg/mL, partner 0.25 µg/mL	0.899
S. pneumoniae D39V [3], first compound 0.125 µg/mL, partner 0.5 µg/mL	0.914
S. pneumoniae D39V [3], first compound 0.125 µg/mL, partner 1 µg/mL	0.821
S. pneumoniae D39V [3], first compound 0.25 µg/mL, partner 0.25 µg/mL	0.745
S. pneumoniae D39V [3], first compound 0.25 µg/mL, partner 0.5 µg/mL	0.774
S. pneumoniae D39V [3], first compound 0.25 µg/mL, partner 1 µg/mL	0.694

Settings	Bliss interaction score
B. subtilis 168 [4]	-0.0827
S. aureus DSM 20231	0.154
S. aureus Newman [5]	0.193
S. pneumoniae D39V [6]	-0.0454

O=C(O)c1cn(C2CC2)c2cc(N3CCNCC3)c(F)cc2c1=O [Ciprofloxacin] + C[C@@H]1O[C@@H]1P(=O)(O)O [Fosfomycin]
Settings	fitness
B. subtilis 168 [1], first compound 0.0098 µg/mL, partner 1.562 µg/mL	0.669
B. subtilis 168 [1], first compound 0.0098 µg/mL, partner 3.124 µg/mL	0.577
B. subtilis 168 [1], first compound 0.0195 µg/mL, partner 1.562 µg/mL	0.409
B. subtilis 168 [1], first compound 0.0195 µg/mL, partner 6.248 µg/mL	0.169
B. subtilis 168 [1], first compound 0.039 µg/mL, partner 1.562 µg/mL	0.0478
B. subtilis 168 [1], first compound 0.039 µg/mL, partner 3.124 µg/mL	0.035
B. subtilis 168 [1], first compound 0.039 µg/mL, partner 6.248 µg/mL	0.0167
S. aureus Newman [2], first compound 0.0375 µg/mL, partner 0.781 µg/mL	0.553
S. aureus Newman [2], first compound 0.0375 µg/mL, partner 1.562 µg/mL	0.455
S. aureus Newman [2], first compound 0.0375 µg/mL, partner 3.124 µg/mL	0.0938
S. aureus Newman [2], first compound 0.075 µg/mL, partner 0.781 µg/mL	0.527
S. aureus Newman [2], first compound 0.075 µg/mL, partner 3.124 µg/mL	0.117
S. aureus Newman [2], first compound 0.15 µg/mL, partner 0.781 µg/mL	0.168
S. aureus Newman [2], first compound 0.15 µg/mL, partner 1.562 µg/mL	0.114
S. aureus Newman [2], first compound 0.15 µg/mL, partner 3.124 µg/mL	0.0354
S. pneumoniae D39V [3], first compound 0.125 µg/mL, partner 1.25 µg/mL	0.94
S. pneumoniae D39V [3], first compound 0.125 µg/mL, partner 2.5 µg/mL	0.892
S. pneumoniae D39V [3], first compound 0.125 µg/mL, partner 5 µg/mL	0.688
S. pneumoniae D39V [3], first compound 0.25 µg/mL, partner 1.25 µg/mL	0.865
S. pneumoniae D39V [3], first compound 0.25 µg/mL, partner 2.5 µg/mL	0.782
S. pneumoniae D39V [3], first compound 0.25 µg/mL, partner 5 µg/mL	0.652
S. pneumoniae D39V [3], first compound 0.5 µg/mL, partner 5 µg/mL	0.42

Settings	Bliss interaction score
B. subtilis 168 [4]	-0.177
S. aureus DSM 20231	0.042
S. aureus Newman [5]	0.0638
S. pneumoniae D39V [6]	-0.0628

O=C(O)c1cn(C2CC2)c2cc(N3CCNCC3)c(F)cc2c1=O [Ciprofloxacin] + C[n+]1ccc(-c2cc[n+](C)cc2)cc1 [Paraquat]
Settings	fitness
B. subtilis 168 [1], first compound 0.0098 µg/mL, partner 1.25 µg/mL	0.895
B. subtilis 168 [1], first compound 0.0098 µg/mL, partner 2.5 µg/mL	0.922
B. subtilis 168 [1], first compound 0.0098 µg/mL, partner 5 µg/mL	0.788
B. subtilis 168 [1], first compound 0.0195 µg/mL, partner 1.25 µg/mL	0.753
B. subtilis 168 [1], first compound 0.0195 µg/mL, partner 2.5 µg/mL	0.657
B. subtilis 168 [1], first compound 0.0195 µg/mL, partner 5 µg/mL	0.687
B. subtilis 168 [1], first compound 0.039 µg/mL, partner 1.25 µg/mL	0.171
B. subtilis 168 [1], first compound 0.039 µg/mL, partner 2.5 µg/mL	0.171
B. subtilis 168 [1], first compound 0.039 µg/mL, partner 5 µg/mL	0.234
S. aureus Newman [2], first compound 0.0375 µg/mL, partner 1.25 µg/mL	0.662
S. aureus Newman [2], first compound 0.0375 µg/mL, partner 2.5 µg/mL	0.639
S. aureus Newman [2], first compound 0.0375 µg/mL, partner 5 µg/mL	0.642
S. aureus Newman [2], first compound 0.075 µg/mL, partner 1.25 µg/mL	0.674
S. aureus Newman [2], first compound 0.075 µg/mL, partner 2.5 µg/mL	0.635
S. aureus Newman [2], first compound 0.075 µg/mL, partner 5 µg/mL	0.663
S. aureus Newman [2], first compound 0.15 µg/mL, partner 1.25 µg/mL	0.033
S. aureus Newman [2], first compound 0.15 µg/mL, partner 2.5 µg/mL	0.0399
S. aureus Newman [2], first compound 0.15 µg/mL, partner 5 µg/mL	0.0549
S. pneumoniae D39V [3], first compound 0.125 µg/mL, partner 1.5 µg/mL	0.983
S. pneumoniae D39V [3], first compound 0.125 µg/mL, partner 3 µg/mL	0.974
S. pneumoniae D39V [3], first compound 0.125 µg/mL, partner 6 µg/mL	0.97
S. pneumoniae D39V [3], first compound 0.25 µg/mL, partner 1.5 µg/mL	0.942
S. pneumoniae D39V [3], first compound 0.25 µg/mL, partner 3 µg/mL	0.913
S. pneumoniae D39V [3], first compound 0.25 µg/mL, partner 6 µg/mL	0.902
S. pneumoniae D39V [3], first compound 0.5 µg/mL, partner 1.5 µg/mL	0.877
S. pneumoniae D39V [3], first compound 0.5 µg/mL, partner 3 µg/mL	0.875

Settings	Bliss interaction score
B. subtilis 168 [4]	-0.0477
S. aureus DSM 20231	-0.0499
S. aureus Newman [5]	-0.0507
S. pneumoniae D39V [6]	0.0853

O=C(O)c1cn(C2CC2)c2cc(N3CCNCC3)c(F)cc2c1=O [Ciprofloxacin] + Cc1cc(NS(=O)(=O)c2ccc(N)cc2)no1 [Sulfamethoxazol]
fitness, one replicate
Settings	first compound 0.0098 µg/mL	first compound 0.0195 µg/mL	first compound 0.039 µg/mL	first compound 0.078 µg/mL	first compound 0.156 µg/mL	first compound 0.312 µg/mL
B. subtilis 168 [1], partner 0.5 µg/mL	0.967	0.88	0.376	–	–	–
S. aureus Newman [2], partner 2 µg/mL	–	–	–	0.76	0.495	0.0936
S. aureus Newman [2], partner 4 µg/mL	–	–	–	0.764	0.475	0.0929
S. aureus Newman [2], partner 8 µg/mL	–	–	–	0.708	0.353	0.0905

fitness
Settings	partner 1 µg/mL	partner 2 µg/mL	partner 4 µg/mL
B. subtilis 168 [1], first compound 0.0098 µg/mL	0.89	0.858	0.913
B. subtilis 168 [1], first compound 0.0195 µg/mL	0.734	0.702	0.671
B. subtilis 168 [1], first compound 0.039 µg/mL	0.0972	0.132	0.0479
S. aureus Newman [2], first compound 0.0375 µg/mL	0.732	0.715	0.722
S. aureus Newman [2], first compound 0.075 µg/mL	0.623	–	0.643
S. aureus Newman [2], first compound 0.15 µg/mL	0.124	0.0895	0.0354
S. pneumoniae D39V [3], first compound 0.125 µg/mL	0.93	0.952	0.96
S. pneumoniae D39V [3], first compound 0.25 µg/mL	0.846	0.863	0.821

Settings	Bliss interaction score
B. subtilis 168 [4]	-0.0827
S. aureus DSM 20231	-0.0468
S. aureus Newman [5]	-0.0651
S. pneumoniae D39V [6]	0.0466
